The source of these data is publication PMC7168207, “Dibasic Derivatives of Phenylcarbamic Acid as Prospective Antibacterial Agents Interacting with Cytoplasmic Membrane” (Antibiotics, 2020).

Experiment [1] relates to Candida albicans CCM 8261. Description: minimum fungistatic concentration, RPMI 1640. Format: cell-based. Conditions: CCM8261, CA = C albicans CCM 8261, 48 h. Here is the method: Fungistatic activity was tested similarly in RPMI (Roswell Park Memorial Institute) 1640 medium (Sigma, Pool, UK). […] A growth control and sterility control were included. The colonies of C. albicans grown overnight on Sabourad dextrose agar were suspended in sterile phosphate-buffered saline (PBS) to get cell density 0.5 McFarland. The inoculum was diluted to get a final concentration of 10^3 CFU/mL in the wells. Plates were inoculated and cultivated at 37 °C for 48 h. The minimum fungistatic concentration was visually evaluated as the lowest concentration of a tested compound, which inhibited 100% of yeast growth. 5-Flucytosin (Sigma, UK) was used as a positive control.

The test system of experiment [2] is VRE 368. Description: synergy with antibiotics (FIC index, checkerboard). Format: cell-based, Enterococcus faecalis. The source says:
(§1) Representatives from various classes were chosen in order to study the potential difference in synergistic activity according to the diverse mechanisms of action and resistance of these drugs. The method of minimal fractional inhibitory concentration (FIC) index (FICI) in a microtitration plate was used. FICI ≤ 0.5 means synergy; 0.5 < FICI < 1 means additivity; 1 ≤ FICI < 4 means indifference; and FICI ≥ 4 means antagonism.
(§2) For synergy effect study, a method of fractional inhibitory concentration was used. […] Raw H was used for the evaluation of MIC(A); column 12 was used for evaluation of MIC(B). The plate was inoculated by the bacterial suspension to reach final concentration of 5 × 10^5 CFU/mL in the wells. The fractional inhibitory concentration (FIC) index was calculated using the concentrations in the first nonturbid (clear) well found in each row and column along the turbidity/nonturbidity interface. To interpret the combined effect, the lowest FICI was used. A ΣFIC ≤ 0.5 means synergy; 0.5 < ΣFIC < 1 means additivity; 1 ≤ ΣFIC < 4 means indifference; and ΣFIC ≥ 4 means antagonism. The tests were made in duplicate, and the results were averaged.

The subject of experiment [3] is VRE 342B. Description: synergy with antibiotics (FIC index, checkerboard). Format: cell-based, Enterococcus faecalis.
Text: as §1, §2

The mark [4] stands for this setting: Enterococcus, VRE, read-out: MIC of each antibacterial drug alone observed in the synergy experiment.

Each structure is given as a SMILES string. Values joined by “and” are separate entries in the source; they are usually repeats but may differ in a detail not shown here. Equal entries are not always repeated.

What is called MIC is the least concentration at which growth counts as inhibited. For the compound `CCCCCOc1cccc(NC(=O)OC(CN(CCC)CCC)CN2CCCC2)c1.Cl.Cl` (centres unmarked) [1f, 1-[3-(dipropylammonio)-2-({[3-(pentyloxy)phenyl]carbamoyl}-oxy)propyl]pyrrolidinium dichloride], the MIC in experiment [1] is 128 µg/mL and 252 µM.

Consider `CN[C@H](CC(C)C)C(=O)N[C@H]1C(=O)N[C@@H](CC(N)=O)C(=O)N[C@H]2C(=O)N[C@H]3C(=O)N[C@H](C(=O)N[C@H](C(=O)O)c4cc(O)cc(O)c4-c4cc3ccc4O)[C@H](O)c3ccc(c(Cl)c3)Oc3cc2cc(c3O[C@@H]2O[C@H](CO)[C@@H](O)[C@H](O)[C@H]2O[C@H]2C[C@](C)(N)[C@H](O)[C@H](C)O2)Oc2ccc(cc2Cl)[C@H]1O` [VAN, vancomycin, reference compound], for which the results for the MIC in experiment [2] (setting [4]) and in experiment [3] (setting [4]) were 512 µg/mL and 1020 µg/mL, respectively. Further, the “concentrations of the tested compound/clinically used antibiotic providing additivity or synergy” value in experiment [2] (VRE 368, in the combination of that line) was 128 µg/mL; in experiment [3] (VRE 342B, in the combination of that line) it was 128 µg/mL and 256 µg/mL.
